Experimental findings from patent publication US20120171126A1, “NOVEL [3,2-c] HETEROARYL STEROIDS AS GLUCOCORTICOID RECEPTOR AGONISTS COMPOSITIONS AND USES THEREOF” (priority 2009, published 2012) are described below.

Like-named read-outs stand apart in the source and are kept apart here.

In this test the test system is IL-8. As to the kind of experiment: Glucocorticoid transrepression assay, IL-8 inhibition (TR). Format: cell-based. The settings on record: Homo sapiens, NCl-H292 cells, TNFα 10 ng/ml; for Emax: read-out: IL-8 inhibition (TR) Emax % inhibition. The procedure: Human Lung epithelial cell line NCl-H292 cells were dissociated from stock flask using 0.05% trypsin/0.53 mM EDTA. Cells were suspended in complete medium and counted. Cells were plated in 96-well flat-bottom plates at 20K cells /well in 0.2 ml/well. Plates were incubated for 24-48 hours until cells were between 75-90% confluent. Medium was aspirated and replaced with medium containing various concentrations of steroids or antagonists. After 1 hour incubation at 37°, TNFα (10 ng/ml final concentration in 0.2 ml) was added and the cells incubated overnight. Control wells with and without TNF were included on each plate, as well as wells with TNF in addition to a maximum (10 μM) concentration of dexamethasone. The cell culture medium was sampled and IL-6 and IL-8 cytokine production was measured using the MSD Multi-Spot immunoassay.

On to `COc1ccc(-n2ncc3c2C=C2CCC4C([C@@H](O)CC5(C)C4CC[C@]5(O)C(=O)CSc4nc5ccccc5n4C)C2(C)C3)cc1` (stereo partly shown) [Compound 86], for which, where the note is “Table 1”, the IC50 is 66 to 400 nM and the Emax lay in the range of 70 to 80%.
The like results for `CC12Cc3cnn(-c4ccccn4)c3C=C1CCC1C2[C@@H](O)CC2(C)C1CC[C@]2(O)C(=O)CSc1nc2ncccc2o1` (stereo partly shown) [Compound 43] were, in that order, 21 to 65 nM and 70 to 80%.
`Cc1ccnc(SCC(=O)[C@@]2(O)CCC3C4CCC5=Cc6c(cnn6CCC#N)CC5(C)C4[C@@H](O)CC32C)n1` (stereo partly shown) [Compound 59]: under “Table 1”, the IC50 was 66 to 400 nM and the Emax fell in the range of 60 to 70%.
Regarding `Cn1ncc2c1C=C1CCC3C([C@@H](O)CC4(C)C3CC[C@]4(O)C(=O)CSc3ccc4ccccc4n3)C1(C)C2` (stereo partly shown) [Compound 23], under “Table 1”, the IC50 was in the range of 66 to 400 nM and the Emax fell in the range of 60 to 70%.
On to `Cn1c(SCC(=O)[C@@]2(O)CCC3C4CCC5=Cc6c(cnn6-c6ccc(F)cc6)CC5(C)C4[C@@H](O)CC32C)nc2ccccc21` (stereo partly shown) [Compound 2], for which, where the note is “Table 1”, the half-inhibitory concentration (IC50) fell in the range of 0.06 to 20 nM and the maximum response (Emax) was more than 80%.
`Cn1ncc2c1C=C1CCC3C([C@@H](O)CC4(C)C3CC[C@]4(O)C(=O)CSc3nc4ncccc4o3)C1(C)C2` (stereo partly shown) [Compound 29]: under “Table 1”, the IC50 lay within 401 to 1000 nM and the maximal response (Emax) is less than 60%.
The like results for `Cc1cccc(SCC(=O)[C@@]2(O)CCC3C4CCC5=Cc6c(cnn6CCC#N)CC5(C)C4[C@@H](O)CC32C)n1` (stereo partly shown) [Compound 61] were, in that order, 66 to 400 nM and 70 to 80%.
As to `COc1ccc(-n2ncc3c2C=C2CCC4C([C@@H](O)CC5(C)C4CC[C@]5(O)C(=O)CSc4nc5cccnc5s4)C2(C)C3)cc1` (stereo partly shown) [Compound 87], where the note is “Table 1”, the IC50 lay in the range of 66 to 400 nM and the maximal response (Emax) fell in the range of 60 to 70%.
Turning to `CC12Cc3cnn(CCC#N)c3C=C1CCC1C2[C@@H](O)CC2(C)C1CC[C@]2(O)C(=O)CSc1ncccn1` (stereo partly shown) [Compound 54], under “Table 1”, the IC50 lay in the range of 401 to 1000 nM and the maximum response (Emax) was less than 60%.
In the case of `CC12Cc3cnn(-c4ccccn4)c3C=C1CCC1C2[C@@H](O)CC2(C)C1CC[C@]2(O)C(=O)CSc1ccc2ccccc2n1` (stereo partly shown) [Compound 37], where the note is “Table 1”, the Emax is less than 60%.
As for `C[C@]12Cc3cnn(-c4ccc(F)cc4)c3C=C1CCC1C2[C@@H](O)C[C@@]2(C)C1CC[C@]2(O)C(=O)CN1CCN(Cc2ccc(C(F)(F)F)cc2)CC1` (stereo partly shown) [Compound 5], for the setting “Table 5”, the half-maximal inhibitory concentration (IC50) was in the range of 0.06 to 20 nM and the Emax was more than 80%.
Regarding `CC12Cc3cn(-c4ccccc4)nc3C=C1CCC1C2[C@@H](O)CC2(C)C1CC[C@]2(O)C(=O)COc1nc2ccccc2s1` (stereo partly shown) [Compound 121], the Emax (Table 1) was less than 60%.
On to `CC12Cc3cnn(-c4ccc(F)cc4)c3C=C1CCC1C2[C@@H](O)CC2(C)C1CC[C@]2(O)C(=O)COc1nc2ccccc2[nH]1` (stereo partly shown) [Compound 111], for which, under “Table 1”, the IC50 was 0.06 to 20 nM and the maximal effect (Emax) is more than 80%.
For the compound `CC12Cc3cnn(-c4nc5ccccc5[nH]4)c3C=C1CCC1C2[C@@H](O)CC2(C)C1CC[C@]2(O)C(=O)CSc1nc2ccccc2s1` (stereo partly shown) [Compound 83], the maximum response (Emax) (Table 1) was less than 60%.
On to `CC12Cc3cnn(CCC#N)c3C=C1CCC1C2[C@@H](O)CC2(C)C1CC[C@]2(O)C(=O)CSc1nc2ccccc2s1` (stereo partly shown) [Compound 49], for which the maximum response (Emax) (Table 1) was less than 60%.
For `Cc1ccccc1-n1ncc2c1C=C1CCC3C([C@@H](O)CC4(C)C3CC[C@]4(O)C(=O)CSc3ccc4ccccc4n3)C1(C)C2` (stereo partly shown) [Compound 81], the Emax (Table 1) was less than 60%.
Turning to `C[C@]12Cc3cnn(-c4ccc(F)cc4)c3C=C1CCC1C2[C@@H](O)C[C@@]2(C)C1CC[C@]2(O)C(=O)NCc1ccc2nccn2c1` (stereo partly shown) [Compound 10], where the note is “Table 2”, the IC50 lay in the range of 0.06 to 20 nM and the Emax was more than 80%.
For `CC12Cc3cnn(CCC#N)c3C=C1CCC1C2[C@@H](O)CC2(C)C1CC[C@]2(O)C(=O)CSc1nc2ccccc2o1` (stereo partly shown) [Compound 50], where the note is “Table 1”, the concentration for half-maximal inhibition (IC50) lay within 66 to 400 nM and the Emax lay in the range of 70 to 80%.
The matching figures for `Cc1ccnc(SCC(=O)[C@@]2(O)CCC3C4CCC5=Cc6c(cnn6-c6ccc(F)cc6)CC5(C)C4[C@@H](O)CC32C)n1` (stereo partly shown) [Compound 97]: 0.06 to 20 nM and more than 80%.
Regarding `CC12Cc3cnn(C(C)(C)C)c3C=C1CCC1C2[C@@H](O)CC2(C)C1CC[C@]2(O)C(=O)CSc1nc2ccccc2[nH]1` (stereo partly shown) [Compound 68], the Emax (Table 1) was less than 60%.
Take `CC12Cc3cnn(-c4ccccn4)c3C=C1CCC1C2[C@@H](O)CC2(C)C1CC[C@]2(O)C(=O)CSc1ccccn1` (stereo partly shown) [Compound 46]: where the note is “Table 1”, the IC50 lay in the range of 66 to 400 nM and the Emax was 70 to 80%.
For `C[C@]12Cc3cnoc3C=C1CCC1C2[C@@H](O)C[C@@]2(C)C1CC[C@]2(O)C(=O)CSc1ccc2ccccc2n1` (stereo partly shown) [Compound 4], the Emax (Table 3) is less than 60%.
With `CC12Cc3cnn(-c4ccc(F)cc4)c3C=C1CCC1C2[C@@H](O)CC2(C)C1CC[C@]2(O)C(=O)N[C@H](CO)Cc1ccccc1` (stereo partly shown) [Compound 24], for the setting “Table 2”, the half-maximal inhibitory concentration (IC50) was 0.06 to 20 nM and the Emax was more than 80%.
Take `C[C@]12Cc3cnoc3C=C1CCC1C2[C@@H](O)C[C@@]2(C)C1CC[C@]2(O)C(=O)CSc1nc2ccccc2o1` (stereo partly shown) [Compound 1]: the Emax (Table 3) is less than 60%.
For `CC12Cc3cnn(-c4ccccc4)c3C=C1CCC1C2[C@@H](O)CC2(C)C1CC[C@]2(O)C(=O)COc1ccc2ccccc2c1` (stereo partly shown) [Compound 117], under “Table 1”, the 50% inhibitory concentration (IC50) is 0.06 to 20 nM and the maximal effect (Emax) was more than 80%.
As to `CC12Cc3cnn(C4CCOCC4)c3C=C1CCC1C2[C@@H](O)CC2(C)C1CC[C@]2(O)C(=O)CSc1nc2ccccc2[nH]1` (stereo partly shown) [Compound 75], the Emax (Table 1) is less than 60%.
With `CC12Cc3cnn(CCC#N)c3C=C1CCC1C2[C@@H](O)CC2(C)C1CC[C@]2(O)C(=O)CSc1nc2cccnc2s1` (stereo partly shown) [Compound 56], the maximum response (Emax) (Table 1) is less than 60%.
The same measure, in the same setting: with `Cn1c(SCC(=O)[C@@]2(O)CCC3C4CCC5=Cc6c(cnn6-c6ccc(C(C)(C)C)cc6)CC5(C)C4[C@@H](O)CC32C)nc2ccccc21` (stereo partly shown) [Compound 91] the figure was less than 60%.
As to `Cn1c(SCC(=O)[C@@]2(O)CCC3C4CCC5=Cc6c(cnn6-c6ccc(F)cc6)CC5(C)C4[C@@H](O)CC32C)nc2cc(S(N)(=O)=O)ccc21` (stereo partly shown) [Compound 123], where the note is “Table 1”, the IC50 fell in the range of 0.06 to 20 nM and the maximal response (Emax) is more than 80%.
As for `COc1ccc2sc(SCC(=O)[C@@]3(O)CCC4C5CCC6=Cc7c(cnn7C)CC6(C)C5[C@@H](O)CC43C)nc2c1` (stereo partly shown) [Compound 25], for the setting “Table 1”, the maximal effect (Emax) is less than 60%.
As for `CCOC(=O)c1cnn(CC(=O)[C@@]2(O)CCC3C4CCC5=Cc6c(cnn6-c6ccc(F)cc6)CC5(C)C4[C@@H](O)CC32C)c1` (stereo partly shown) [Compound 3], under “Table 7”, the IC50 fell in the range of 0.06 to 20 nM and the maximal response (Emax) was more than 80%.
For `C[C@]12Cc3cnoc3C=C1CCC1C2[C@@H](O)C[C@@]2(C)C1CC[C@]2(O)C(=O)CSc1ccccn1` (stereo partly shown) [Compound 3], the Emax (Table 3) is less than 60%.
As to `CC12Cc3cnn(-c4ccccn4)c3C=C1CCC1C2[C@@H](O)CC2(C)C1CC[C@]2(O)C(=O)CSc1ncccn1` (stereo partly shown) [Compound 40], under “Table 1”, the IC50 is 66 to 400 nM and the Emax is 60 to 70%.
On to `CC12Cc3cnn(-c4ccc(F)cc4)c3C=C1CCC1C2[C@@H](O)CC2(C)C1CC[C@]2(O)C(=O)CSc1ccccn1` (stereo partly shown) [Compound 5], for which, under “Table 1”, the IC50 was 0.06 to 20 nM and the maximal effect (Emax) is more than 80%.
Take `CC(C)(C)c1ccc(-n2ncc3c2C=C2CCC4C([C@@H](O)CC5(C)C4CC[C@]5(O)C(=O)CSc4ccccn4)C2(C)C3)cc1` (stereo partly shown) [Compound 93]: under “Table 1”, the Emax was less than 60%.
With `CC12Cc3cnn(-c4ccc(F)cc4)c3C=C1CCC1C2[C@@H](O)CC2(C)C1CC[C@]2(O)C(=O)Nc1nc2ccc(S(N)(=O)=O)cc2s1` (stereo partly shown) [Compound 18], for the setting “Table 2”, the IC50 was 0.06 to 20 nM and the Emax was more than 80%.
Regarding `Cn1cnnc1SCC(=O)[C@@]1(O)CCC2C3CCC4=Cc5c(cnn5-c5ccccn5)CC4(C)C3[C@@H](O)CC21C` (stereo partly shown) [Compound 41], the Emax (Table 1) is less than 60%.
On the same count and under the same terms, with `Cn1ncc2c1C=C1CCC3C([C@@H](O)CC4(C)C3CC[C@]4(O)C(=O)CSc3ncccn3)C1(C)C2` (stereo partly shown) [Compound 26] the figure was less than 60%.
With `CC12Cc3cnn(-c4ccc(F)cc4)c3C=C1CCC1C2[C@@H](O)CC2(C)C1CC[C@]2(O)C(=O)Cn1cc(-c2cccnc2)nn1` (stereo partly shown) [Compound 1], for the setting “Table 6”, the concentration for half-maximal inhibition (IC50) fell in the range of 0.06 to 20 nM and the maximal effect (Emax) was more than 80%.
Consider `C[C@]12Cc3cnn(-c4ccc(F)cc4)c3C=C1CCC1C2[C@@H](O)C[C@@]2(C)C1CC[C@]2(O)C(=O)CN1CCN(c2ncccn2)CC1` (stereo partly shown) [Compound 4], for which, under “Table 5”, the IC50 lay within 0.06 to 20 nM and the maximal effect (Emax) is more than 80%.
In the case of `CC12Cc3cnn(-c4ccc(F)cc4)c3C=C1CCC1C2[C@@H](O)CC2(C)C1CC[C@]2(O)C(=O)CSc1ncnc2ccccc12` (stereo partly shown) [Compound 98], where the note is “Table 1”, the 50% inhibitory concentration (IC50) lay in the range of 0.06 to 20 nM and the Emax is more than 80%.
Consider `CC12Cc3cnn(C4CCCCC4)c3C=C1CCC1C2[C@@H](O)CC2(C)C1CC[C@]2(O)C(=O)CSc1ncccn1` (stereo partly shown) [Compound 126], for which, where the note is “Table 1”, the half-inhibitory concentration (IC50) was in the range of 0.06 to 20 nM and the Emax is more than 80%.
The matching figures for `CC12Cc3cnn(-c4ccc(F)cc4)c3C=C1CCC1C2[C@@H](O)CC2(C)C1CC[C@]2(O)C(=O)CSc1cnc2ccccc2n1` (stereo partly shown) [Compound 6]: 0.06 to 20 nM and more than 80%.

The IC50 is the concentration needed to halve the response being measured. As usually defined, the Emax is the size of the effect at its maximum, as opposed to the concentration needed.
